Key:
NLRP3 inflammasome = assay: PBMC assay: IL-1β in LPS-stimulated human PBMCs (MSD); format: cell-based; details: human PBMCs, 100 ng/ml LPS for 6 hrs, IL-1β in supernatant via MSD, read-out: IL1β IC50
Procedure: The activity of a compound according to the present invention can be assessed by in vitro methods.
Peripheral venous blood was collected from healthy individuals and human peripheral blood mononuclear cells (PBMCs) were isolated from blood by Ficoll-Histopaque (Sigma-Aldrich, A0561) density gradient centrifugation. After isolation, PBMCs were stored in liquid nitrogen for later use. Upon thawing, PBMC cell viability was determined in growth medium (RPMI media supplemented with 10% fetal bovine serum, 1% Pen-Strep and 1% L-glutamine). […] PBMCs were added at a density of 7.5×10^4 cells per well and incubated for 30 min in a 5% CO2 incubator at 37° C. LPS stimulation was performed by addition of 100 ng/ml LPS (final concentration, Invivogen, tlrl-smlps) for 6 hrs followed by collection of cellular supernatant and the analysis of IL-1β (μM) and TNF cytokines levels (μM) via MSD technology according to manufacturers' guidelines (MSD, K151A0H).

TNF = assay: PBMC assay: TNF cytokine levels in LPS-stimulated human PBMCs (MSD); format: cell-based; details: 100 ng/ml LPS for 6 hrs, TNF in supernatant via MSD
Procedure: Peripheral venous blood was collected from healthy individuals and human peripheral blood mononuclear cells (PBMCs) were isolated from blood by Ficoll-Histopaque (Sigma-Aldrich, A0561) density gradient centrifugation. After isolation, PBMCs were stored in liquid nitrogen for later use. Upon thawing, PBMC cell viability was determined in growth medium (RPMI media supplemented with 10% fetal bovine serum, 1% Pen-Strep and 1% L-glutamine). Compounds were spotted in a 1:3 serial dilution in DMSO and diluted to the final concentration in 30 μl medium in 96 well plates (Falcon, 353072). PBMCs were added at a density of 7.5×10^4 cells per well and incubated for 30 min in a 5% CO2 incubator at 37° C. LPS stimulation was performed by addition of 100 ng/ml LPS (final concentration, Invivogen, tlrl-smlps) for 6 hrs followed by collection of cellular supernatant and the analysis of IL-1β (μM) and TNF cytokines levels (μM) via MSD technology according to manufacturers' guidelines (MSD, K151A0H).
The IC50 values (for IL-1β) and EC50 values (TNF) were obtained on compounds of the invention/examples, and are depicted in the following table: […]

| Compound | IC50 (NLRP3 inflammasome) [µM] | EC50 (TNF) [µM] |
| --- | --- | --- |
| Cc1nn(CC(=O)N[C@@H]2COC[C@@H]2CC(C)C)c(=O)c2cc(C3CC3)nn12 [Final Cpd 55] | > 10 | > 10 |
| Cc1nn(CC(=O)N[C@@H]2CCN(c3nc4cccnc4o3)C2)c(=O)c2cc(C3CC3)nn12 [Final Cpd 56] | 6.97 | > 10 |
| Cc1nn(CC(=O)NC2(CO)CCCC2)c(=O)c2cc(C3CC3)nn12 [Final Cpd 57] | > 10 | > 10 |
| Cc1noc(C)c1[C@@H](c1ccccc1)N1CC(NC(=O)Cn2nc(C)n3nc(C4CC4)cc3c2=O)C1 [Final Cpd 58] | 9.41 | > 10 |
| Cc1nn(CC(=O)N[C@H]2CCN(Cc3ccncc3)C2)c(=O)c2cc(C3CC3)nn12 [Final Cpd 59] | > 10 | > 10 |
| Cc1nn(CC(=O)NC2CN([C@H](c3ccccc3)c3cncnc3)C2)c(=O)c2cc(C3CC3)nn12 [Final Cpd 60] | > 10 | > 10 |
| Cc1nn(CC(=O)NC2(C)CCC2)c(=O)c2cc(C3CC3)nn12 [Final Cpd 62] | 8.53 | > 10 |
| Cc1nn(CC(=O)NC2(c3ccc(Cl)cc3Cl)CCC2)c(=O)c2cc(C3CC3)nn12 [Final Cpd 63] | 7.89 | > 10 |
| Cc1nn(CC(=O)N[C@]23CC[C@H](CC2)C3)c(=O)c2cc(C3CC3)nn12 [Final Cpd 64] | 5.5 | > 10 |
| Cc1nn(CC(=O)NC2CCCC2O)c(=O)c2cc(C3CC3)nn12 (stereo not drawn) [Final Cpd 65] | 4.19 | > 10 |
| Cc1nn(CC(=O)NC2CC(c3ccc(O)cc3)C2)c(=O)c2cc(C3CC3)nn12 (stereo not drawn) [Final Cpd 66] | 3.55 | > 10 |
| Cc1nn(CC(=O)NC23CCCC2C2CCCC23)c(=O)c2cc(C3CC3)nn12 (stereo not drawn) [Final Cpd 67] | > 10 | > 10 |
| CCCCc1nn(CC(=O)Nc2ccc3nncn3c2)c(=O)c2cc(C3CC3)nn12 [Final Cpd 68] | 0.78 | > 10 |
| CC(C)Cc1nn(CC(=O)Nc2ccc3nncn3c2)c(=O)c2cc(C3CC3)nn12 [Final Cpd 69] | ~2.45 | > 10 |
| CC(C)c1nn(CC(=O)Nc2ccncn2)c(=O)c2cc(C(C)(C)C)nn12 [Final Cpd 70] | 0.62 | > 10 |
| CC(C)c1nn(CC(=O)N[C@H]2C[C@@](C)(O)C2)c(=O)c2cc(C(C)(C)C)nn12 [Final Cpd 71] | 0.54 | > 10 |
| CCc1nn(CC(=O)NC2CC2)c(=O)c2ccnn12 [Final Cpd 76, N-cyclopropyl-2-(7-ethyl-4-oxopyrazolo[1,5-d][1,2,4]triazin-5(4H)-yl)acetamide] | > 10 | > 10 |
| CCc1nn(CC(=O)Nc2ccccc2OC)c(=O)c2ccnn12 [Final Cpd 77] | > 10 | > 10 |
| CCc1nn(CC(=O)NC2CCCC2)c(=O)c2ccnn12 [Final Cpd 78] | > 10 | > 10 |
| CCc1nn(CC(=O)Nc2ccncc2)c(=O)c2ccnn12 [Final Cpd 79] | > 10 | > 10 |

| Compound | IC50 (NLRP3 inflammasome) [µM] | EC50 (TNF) [µM] |
| --- | --- | --- |
| CC(C)c1nn(CC(=O)Nc2cc(C(F)(F)F)ncn2)c(=O)c2cc(C3CC3)nn12 [Final Cpd 83] | > 10 | > 10 |
| Cc1nnc2n1CC(NC(=O)Cn1nc(C(C)C)n3nc(C4CC4)cc3c1=O)CC2 (stereo not drawn) [Final Cpd 84] | 0.63 | > 10 |
| CC(C)c1nn(CC(=O)Nc2ccc(C3CC3)nn2)c(=O)c2cc(C3CC3)nn12 [Final Cpd 86] | > 10 | > 10 |
| CC(C)c1nn(CC(=O)NC2CC(C(C)(C)O)C2)c(=O)c2cc(C3CC3)nn12 (stereo not drawn) [Final Cpd 88] | 1.29 | > 10 |
| CC(C)c1nn(CC(=O)Nc2ccc3nnc(C(F)F)n3c2)c(=O)c2cc(C3CC3)nn12 [Final Cpd 92] | 0.92 | > 10 |
| CC(C)c1nn(CC(=O)Nc2ccn3cnnc3c2)c(=O)c2cc(C3CC3)nn12 [Final Cpd 93] | 1.51 | > 10 |
| Cc1nnc2cc(NC(=O)Cn3nc(C(C)C)n4nc(C5CC5)cc4c3=O)ccn12 [Final Cpd 94] | 2.34 | > 10 |
| CC(C)c1nn(CC(=O)Nc2nccc(C(F)(F)F)n2)c(=O)c2cc(C3CC3)nn12 [Final Cpd 98] | > 10 | > 10 |
| CC(C)c1nn(CC(=O)Nc2ccc3nc(C#N)cn3c2)c(=O)c2cc(C3CC3)nn12 [Final Cpd 99] | 0.49 | > 10 |
| CC(C)c1nn(CC(=O)Nc2cnc3ccnn3c2)c(=O)c2cc(C3CC3)nn12 [Final Cpd 101] | 7.75 | > 10 |
| COc1c(NC(=O)Cn2nc(C(C)C)n3nc(C4CC4)cc3c2=O)ccnc1C [Final Cpd 102] | 0.52 | > 10 |
| CC(C)c1nn(CC(=O)Nc2ccn3ncnc3c2)c(=O)c2cc(C3CC3)nn12 [Final Cpd 103] | 0.56 | > 10 |
| Cc1cc(NC(=O)Cn2nc(C(C)C)n3nc(C4CC4)cc3c2=O)c(C)cn1 [Final Cpd 104] | 1.62 | > 10 |
| COc1ncccc1NC(=O)Cn1nc(C(C)C)n2nc(C3CC3)cc2c1=O [Final Cpd 106] | 0.71 | > 10 |
| COc1ncc(NC(=O)Cn2nc(C(C)C)n3nc(C4CC4)cc3c2=O)cn1 [Final Cpd 107] | 4.23 | > 10 |
| CC(C)c1nn(CC(=O)Nc2ccc3c(C#N)ncn3c2)c(=O)c2cc(C3CC3)nn12 [Final Cpd 108] | 0.54 | > 10 |
| CC(C)c1nn(CC(=O)Nc2cccnc2Cl)c(=O)c2cc(C3CC3)nn12 [Final Cpd 109] | 1.08 | > 10 |
| CC(C)c1nn(CC(=O)Nc2ccc(Cl)nc2)c(=O)c2cc(C3CC3)nn12 [Final Cpd 110] | 0.59 | > 10 |
| COc1ccc(NC(=O)Cn2nc(C(C)C)n3nc(C4CC4)cc3c2=O)cn1 [Final Cpd 111] | 0.83 | > 10 |

These reach a lower IC50 (NLRP3 inflammasome). Values come first.

| IC50 (NLRP3 inflammasome) [µM] | EC50 (TNF) [µM] | Compound |
| --- | --- | --- |
| 0.064 | > 10 | COC(=O)C12CC(NC(=O)Cn3nc(C)n4nc(C5CC5)cc4c3=O)(C1)C2 [Final Cpd 61] |
| 0.054 | > 10 | CCNc1cc2c(=O)n(CC(=O)Nc3ccncn3)nc(C(C)C)n2n1 [Final Cpd 72] |
| 0.11 | > 10 | CCNc1cc2c(=O)n(CC(=O)N[C@H]3C[C@@](C)(O)C3)nc(C(C)C)n2n1 [Final Cpd 73] |
| 0.22 | > 10 | CCNc1cc2c(=O)n(CC(=O)Nc3ccc(=O)n(C)n3)nc(C(C)C)n2n1 [Final Cpd 74] |
| 0.024 | 7.04 | CCNc1cc2c(=O)n(CC(=O)Nc3ccc4nncn4c3)nc(C(C)C)n2n1 [Final Cpd 75] |
| 0.08 | > 10 | CC(C)c1nn(CC(=O)Nc2ccc3nncn3c2)c(=O)c2cc(C3CC3)nn12 [Final Cpd 80] |
| 0.16 | > 10 | CC(C)c1nn(CC(=O)Nc2ccc(=O)n(C)n2)c(=O)c2cc(C3CC3)nn12 [Final Cpd 81] |
| 0.28 | > 10 | CC(C)c1nn(CC(=O)Nc2ccc3ncnn3c2)c(=O)c2cc(C3CC3)nn12 [Final Cpd 82] |
| 0.34 | > 10 | CC(C)c1nn(CC(=O)Nc2cc(C(F)F)[nH]n2)c(=O)c2cc(C3CC3)nn12 [Final Cpd 85] |
| 0.063 | 6.17 | CC(C)c1nn(CC(=O)Nc2ccc3cncn3c2)c(=O)c2cc(C3CC3)nn12 [Final Cpd 87] |
| 0.23 | > 10 | Cc1nc2ccc(NC(=O)Cn3nc(C(C)C)n4nc(C5CC5)cc4c3=O)cn2n1 [Final Cpd 89] |
| 0.39 | > 10 | CC(C)c1nn(CC(=O)Nc2ccn3ccnc3c2)c(=O)c2cc(C3CC3)nn12 [Final Cpd 90] |
| 0.31 | > 10 | CC(C)c1nn(CC(=O)Nc2ccc3nccn3c2)c(=O)c2cc(C3CC3)nn12 [Final Cpd 91] |
| 0.37 | > 10 | CC(C)c1nn(CC(=O)Nc2cc(Br)c3nncn3c2)c(=O)c2cc(C3CC3)nn12 [Final Cpd 95] |
| 0.24 | > 10 | CC(C)c1nn(CC(=O)Nc2ccncc2F)c(=O)c2cc(C3CC3)nn12 [Final Cpd 96] |
| 0.2 | > 10 | Cc1nccc(NC(=O)Cn2nc(C(C)C)n3nc(C4CC4)cc3c2=O)c1F [Final Cpd 97] |
| 0.31 | > 10 | CC(C)c1nn(CC(=O)Nc2ccc3ncoc3c2)c(=O)c2cc(C3CC3)nn12 [Final Cpd 100] |
| 0.18 | > 10 | CC(C)c1nn(CC(=O)Nc2ccc3nc(C(F)F)cn3c2)c(=O)c2cc(C3CC3)nn12 [Final Cpd 105] |
